{
  "source": "patent US6506339B1",
  "about": "“Method of sterilization” (Biomedical Design, Inc., priority 1997, dated 2003)",
  "assay_type_in_all_cases": "cell-based",
  "key": {"[1]": {"test_system": "spores of Bacillus subtilis", "experiment": "Two sequential spore inoculations on cross-linked porcine valves (Example 5)", "conditions": "25 mM EDC, 20% isopropyl alcohol, 40° C.", "experimental": "An experiment was also designed to test the bactericidal activity of the EDC treatment using two sequential inoculations of at least 1×10^6 spores of Bacillus subtilis per sample. In the first step, 1.43×10^6 spores (Log10=6.2) were inoculated in triplicate for 10 minutes onto 45 porcine valves which had been cross-linked using a method as described in the above-mentioned patent and patent application. Solutions of 25 mM EDC in 10 mM HEPES, 0.85% NaCl, 20% isopropyl alcohol, at pH 6.5 were poured into the cups containing the valve samples. After 2, 4, 6, and 8 hours of incubation at 40° C., the total surviving spores from 12 samples (solution plus tissue) were counted. After 8 hours of incubation, an additional 1.2×10^6 (Log10=6.1) spores were added to the remaining 33 samples. Summarizing, these remaining 33 samples were thus inoculated at t=0 with 1.43×10^6 spores and at t=8 with 1.2×10^6 spores. After various durations of incubation (see Table C for details), the surviving spores in solution and on the valve tissue were removed by filtering and incubated on TSA plates as described above. The positive and negative controls were determined to be valid for the test."}, "[2]": {"test_system": "Bacillus subtilis (niger) spores", "experiment": "D values of EDC without isopropyl alcohol, 40° C. (Example 4A)", "conditions": "no isopropyl alcohol; for incubation duration necessary to achieve 6 log reduction: calculated from D value", "experimental": "The following experiment was carried out to assess the effectiveness of a coupling agent, such as EDC, in the absence of isopropyl alcohol or an equivalent alkanol. Bacillus subtilis (niger) spores at levels of 1.5×10^6 were inoculated in sterile cups for approximately 10 minutes. Solutions (50 ml) of 25, 37.5 and 50 mM EDC in 10 mM TRIS, 0.85% NaCl, pH 6.5, which contain no isopropyl alcohol, were prewarmed to 40° C. and then rapidly added to the cups. The cups were incubated at 40° C. for 0.5, 1, 6, 24 and 48 hours; then, the solutions were diluted and filtered in order to collect microorganisms. Next, the filters were rinsed with a 0.1% peptone water solution to eliminate any residual EDC and then incubated on TSA plates for up to 14 days. The plates were examined every day for growth, with the colony forming units (CFUs) being counted, and resulting D values were calculated. Such D values represent the duration (in minutes) of incubation to decrease the level of spores by one log, i.e. eliminating 90% of the spores population."}, "[3]": {"test_system": "Bacillus subtilis (niger) spores", "experiment": "Sterilization without isopropyl alcohol at 55° C. (Example 4D)", "experimental": "An experiment similar to that of Example 4A was carried out using a higher temperature of 55°. Bacillus subtilis (niger) spores at levels of 1.32×10^6 (Log10=6.12) were inoculated for approximately 10 minutes in sterile cups. Solutions (50 ml) of 5 and 50 mM EDC in 10 mM TRIS, 0.85% NaCl, pH 6.5 were prewarmed to 55° C. and then rapidly added to the cups. The cups were incubated at 55° C. for 1 and 10 hours; the solutions were then diluted and filtered in order to collect microorganisms. The filters were rinsed with a 0.1% peptone water solution and incubated on TSA plates for up to 14 days. The plates are examined daily for growth. […] This can be extrapolated to achieving complete kill in 2-3 hours. […] Although this cannot be extrapolated to complete kill over a greater length of time because of the low level of EDC remaining after 10 hours, it is expected that sterilization treatment using a concentration at least about 15 mM EDC at 55° C. for 10 hours would result in complete kill."}, "[4]": {"conditions": "28 to 56 hours, rechallenge with 1.2×10^6 spores at 8 hours, mean of three samples"}, "[5]": {"conditions": "2 hours, inoculum 1.43×10^6, mean of three samples"}, "[6]": {"conditions": "4 hours, inoculum 1.43×10^6, mean of three samples"}, "[7]": {"conditions": "6 hours, inoculum 1.43×10^6, mean of three samples"}, "[8]": {"conditions": "8 hours, inoculum 1.43×10^6, mean of three samples"}, "[9]": {"conditions": "11 hours, rechallenge with 1.2×10^6 spores at 8 hours, mean of three samples"}, "[10]": {"conditions": "14 hours, rechallenge with 1.2×10^6 spores at 8 hours, mean of three samples"}, "[11]": {"conditions": "20 hours, rechallenge with 1.2×10^6 spores at 8 hours, mean of three samples"}, "[12]": {"conditions": "24 hours, rechallenge with 1.2×10^6 spores at 8 hours, mean of three samples"}},
  "data": [
    {"molecule": "CCN=C=NCCCN(C)C.Cl", "note": "[EDC, 1-ethyl-3(3-dimethylaminopropyl)carbodiimide hydrochloride]", "values": [
      {"measurement": "LOG REDUCTION", "setting": "[1]; [4]", "result": 6.1},
      {"measurement": "Total Survivors # CFUs", "setting": "[1]; [4]", "result": 0, "unit": "CFUs"},
      {"measurement": "Total Survivors Log 10", "setting": "[1]; [4]", "result": 0, "unit": "Log 10"},
      {"measurement": "LOG REDUCTION", "setting": "[1]; [5]", "result": 4.5},
      {"measurement": "Total Survivors # CFUs", "setting": "[1]; [5]", "result": 58, "unit": "CFUs"},
      {"measurement": "Total Survivors Log 10", "setting": "[1]; [5]", "result": 1.7, "unit": "Log 10"},
      {"measurement": "LOG REDUCTION", "setting": "[1]; [6]", "result": 5.6},
      {"measurement": "Total Survivors # CFUs", "setting": "[1]; [6]", "result": 4, "unit": "CFUs"},
      {"measurement": "Total Survivors Log 10", "setting": "[1]; [6]", "result": 0.5, "unit": "Log 10"},
      {"measurement": "LOG REDUCTION", "setting": "[1]; [7]", "result": 6.2},
      {"measurement": "Total Survivors # CFUs", "setting": "[1]; [7]", "result": 0, "unit": "CFUs"},
      {"measurement": "Total Survivors Log 10", "setting": "[1]; [7]", "result": 0, "unit": "Log 10"},
      {"measurement": "LOG REDUCTION", "setting": "[1]; [8]", "result": 6.2},
      {"measurement": "Total Survivors # CFUs", "setting": "[1]; [8]", "result": 0, "unit": "CFUs"},
      {"measurement": "Total Survivors Log 10", "setting": "[1]; [8]", "result": 0, "unit": "Log 10"},
      {"measurement": "LOG REDUCTION", "setting": "[1]; [9]", "result": 3.7},
      {"measurement": "Total Survivors # CFUs", "setting": "[1]; [9]", "result": 300, "unit": "CFUs"},
      {"measurement": "Total Survivors Log 10", "setting": "[1]; [9]", "result": 2.5, "unit": "Log 10"},
      {"measurement": "LOG REDUCTION", "setting": "[1]; [10]", "result": 6.1},
      {"measurement": "Total Survivors # CFUs", "setting": "[1]; [10]", "result": 0, "unit": "CFUs"},
      {"measurement": "Total Survivors Log 10", "setting": "[1]; [10]", "result": 0, "unit": "Log 10"},
      {"measurement": "LOG REDUCTION", "setting": "[1]; [11]", "result": 6.1},
      {"measurement": "Total Survivors # CFUs", "setting": "[1]; [11]", "result": 0, "unit": "CFUs"},
      {"measurement": "Total Survivors Log 10", "setting": "[1]; [11]", "result": 0, "unit": "Log 10"},
      {"measurement": "LOG REDUCTION", "setting": "[1]; [12]", "result": 6.1},
      {"measurement": "Total Survivors # CFUs", "setting": "[1]; [12]", "result": 0, "unit": "CFUs"},
      {"measurement": "Total Survivors Log 10", "setting": "[1]; [12]", "result": 0, "unit": "Log 10"},
      {"measurement": "D value (duration of incubation to decrease the level of spores by one log)", "setting": "[2]; 25 mM EDC", "result": 203, "unit": "minutes"},
      {"measurement": "incubation duration necessary to achieve 6 log reduction", "setting": "[2]; 25 mM EDC", "result": 24, "unit": "hours"},
      {"measurement": "D value (duration of incubation to decrease the level of spores by one log)", "setting": "[2]; 37.5 mM EDC", "result": 106, "unit": "minutes"},
      {"measurement": "incubation duration necessary to achieve 6 log reduction", "setting": "[2]; 37.5 mM EDC", "result": 11, "unit": "hours"},
      {"measurement": "D value (duration of incubation to decrease the level of spores by one log)", "setting": "[2]; 50 mM EDC", "result": 86, "unit": "minutes"},
      {"measurement": "incubation duration necessary to achieve 6 log reduction", "setting": "[2]; 50 mM EDC", "result": 9, "unit": "hours"},
      {"measurement": "log reduction", "setting": "[3]; 5 mM EDC, 1 hour, 1.32×10^6 spores, no isopropyl alcohol", "result": 0.512},
      {"measurement": "log reduction", "setting": "[3]; 5 mM EDC, 10 hours, 1.32×10^6 spores, no isopropyl alcohol", "result": 4.46},
      {"measurement": "inactivation of spores", "setting": "[3]; 50 mM EDC, 10 hours, 1.32×10^6 spores, no isopropyl alcohol", "result": "effectively inactivated these spores"},
      {"measurement": "time to complete kill (extrapolated)", "setting": "[3]; 50 mM EDC, extrapolated from the one-hour log reduction", "result": "2 to 3", "unit": "h"},
      {"measurement": "log reduction", "setting": "[3]; 50 mM EDC, one hour, 1.32×10^6 spores, no isopropyl alcohol", "result": 3.04}
    ]}
  ]
}
